Laboratory results from PMC5352234 (International Journal of Nanomedicine, 2017).
Where two headings read alike, the source gives them in different places. Values belong to the substance of their own block, whether it stands above or below them.

Columns and labels:
[1] = Aggregation of unmodified AuNPs by peptide; format: physicochemical; settings: AuNPs 2.4 nM, IP20 5 µM, PKA (where present) 500 U/mL; UV-Vis, TEM
PKA [2] = biological target: T1, PKA (Bos taurus, UniProt P00517); test: AuNPs/Fc-peptide electrochemical; settings: thiolated IP20/MCH gold electrode; Fc-peptide 4 µM or AuNPs 2.4 nM
PKA [3] = biological target: T1, PKA; settings: cited from earlier work
[4] = substrate/ATP, Biotinylated antiphosphoserine antibody/SA-AuNPs-HRP, ref [19]
[5] = substrate/ATP, Fe^3+/H2O2, ref [20]
[6] = substrate/ATP-S, AuNPs/MWNTs, ref [30]
[7] = substrate/ATP, Zr^4+-DNA-AuNPs network, ref [22]

Substance: RTGRRNAIHD
effect on AuNPs aggregation / color change [1]: responsible for triggering the aggregation of AuNPs

DPV signal/peak, single component only (Fc-peptide alone or AuNPs alone) (PKA [2]): no DPV peak was observed
Substance: FcCH2CO-RTGRRNAIHD [Fc-peptide]

Substance: CALRRASLGW
Detection limit (PKA [3]; [4]): 1 mU/mL | Linear range (PKA [3]; [4]): 1–10 mU/mL

Substance: CGGALRRASLG
Linear range (PKA [3]; substrate/ATP, Phos-tag-biotin/avidin-HRP, ref [23]): 500–25,000 mU/mL

Substance: Fc-LRRASLG
Detection limit (PKA [3]; substrate/ATP, bis(Zn^2+-dipicolylamine), ref [21]): 100 mU/mL

Substance: LRRASLGGGGC
Detection limit (PKA [3]; [5]): 100 mU/mL | Linear range (PKA [3]; [5]): 100–50,000 mU/mL

Substance: LRRASLG
Detection limit (PKA [3]; substrate/biotin-ATP, SA-AuNPs, ref [27]): 10,000 mU/mL

Substance: CLRRASIG
Detection limit (PKA [3]; [6]): 90 mU/mL | Linear range (PKA [3]; [6]): 100–1,000 mU/mL

Substance: CLRRASLG
Detection limit (PKA [3]; [7]): 30 mU/mL | Linear range (PKA [3]; [7]): 30–40,000 mU/mL
